# Source: ChEMBL document CHEMBL5608246, “Membrane-Targeting Amphiphilic Honokiol Derivatives Containing an Oxazole Moiety as Potential Antibacterials against Methicillin-Resistant Staphylococcus aureus” (J Med Chem, 2024)
# Calls of active or inactive are those of the source. The calls are words filed in the database; no cut-off is given here.
# Columns and labels:
# Cell membrane = assay: Induction of membrane permeability in methicillin resistant Staphylococcus aureus 20 at 32 ug/ml measured at 2 mins interval over 20 mins by SYTOX green staining based assay; conditions: dose 32.0 µg/ml
# Staphylococcus aureus [1] = assay: Antibacterial activity against Staphylococcus aureus ATCC 29213 incubated for 16 to 18 hrs by broth dilution method; assay type: functional; conditions: time 16-18 hrs
# Staphylococcus aureus [2] = assay: Antibacterial activity against methicillin resistant Staphylococcus aureus N315 incubated for 16 to 18 hrs by broth dilution method; assay type: functional; conditions: time 16-18 hrs
# Staphylococcus aureus [3] = assay: Antibacterial activity against methicillin resistant Staphylococcus aureus M11 incubated for 16 to 18 hrs by broth dilution method; assay type: functional; conditions: time 16-18 hrs
# Staphylococcus aureus [4] = assay: Antibacterial activity against methicillin resistant Staphylococcus aureus M12 incubated for 16 to 18 hrs by broth dilution method; assay type: functional; conditions: time 16-18 hrs
# Staphylococcus aureus [5] = assay: Antibacterial activity against methicillin resistant Staphylococcus aureus M13 incubated for 16 to 18 hrs by broth dilution method; assay type: functional; conditions: time 16-18 hrs
# Staphylococcus aureus [6] = assay: Antibacterial activity against methicillin resistant Staphylococcus aureus M14 incubated for 16 to 18 hrs by broth dilution method; assay type: functional; conditions: time 16-18 hrs
# Staphylococcus aureus [7] = assay: Antibacterial activity against methicillin resistant Staphylococcus aureus M16 incubated for 16 to 18 hrs by broth dilution method; assay type: functional; conditions: time 16-18 hrs
# Staphylococcus aureus [8] = assay: Antibacterial activity against methicillin resistant Staphylococcus aureus M17 incubated for 16 to 18 hrs by broth dilution method; assay type: functional; conditions: time 16-18 hrs
# Staphylococcus aureus [9] = assay: Antibacterial activity against methicillin resistant Staphylococcus aureus M20 incubated for 16 to 18 hrs by broth dilution method; assay type: functional; conditions: time 16-18 hrs
# Staphylococcus aureus [10] = assay: Antibacterial activity against methicillin resistant Staphylococcus aureus M21 incubated for 16 to 18 hrs by broth dilution method; assay type: functional; conditions: time 16-18 hrs
# Staphylococcus aureus [11] = assay: Antibacterial activity against methicillin resistant Staphylococcus aureus M22 incubated for 16 to 18 hrs by broth dilution method; assay type: functional; conditions: time 16-18 hrs
# Staphylococcus aureus [12] = assay: Antibacterial activity against methicillin resistant Staphylococcus aureus M23 incubated for 16 to 18 hrs by broth dilution method; assay type: functional; conditions: time 16-18 hrs
# Escherichia coli = assay: Antibacterial activity against Escherichia coli ATCC 25922 incubated for 16 to 18 hrs by broth dilution method; assay type: functional; conditions: time 16-18 hrs
# [13] = Hemolytic activity in sheep RBC incubated for 1 hr; assay type: toxicity, cell-based, Ovis aries, Erythrocyte; conditions: sheep red blood cells (erythrocytes)
# [14] = Selectivity index, ratio of HC50 for sheep RBC to MIC for Staphylococcus aureus ATCC 29213; assay type: toxicity; conditions: sheep red blood cells, read-out: Selectivity Index
# Staphylococcus aureus [15] = assay: Antibacterial activity against Staphylococcus aureus ATCC 29213 assessed as resistance development by measuring fold increase in MIC after 20 passages incubated for 16 to 18 hrs; assay type: functional; conditions: time 16-18 hrs
Compound,Activity (Cell membrane),MIC (Staphylococcus aureus [1]) [mg/L],MIC (Staphylococcus aureus [2]) [mg/L],MIC (Staphylococcus aureus [3]) [mg/L],MIC (Staphylococcus aureus [4]) [mg/L],MIC (Staphylococcus aureus [5]) [mg/L],MIC (Staphylococcus aureus [6]) [mg/L],MIC (Staphylococcus aureus [7]) [mg/L],MIC (Staphylococcus aureus [8]) [mg/L],MIC (Staphylococcus aureus [9]) [mg/L],MIC (Staphylococcus aureus [10]) [mg/L],MIC (Staphylococcus aureus [11]) [mg/L],MIC (Staphylococcus aureus [12]) [mg/L],MIC (Escherichia coli) [mg/L],HC50 at 1 h [13] [µg/mL],selectivity ratio [14],fold change (FC) (Staphylococcus aureus [15])
CC[C@H](C)[C@H](NC(=O)CN)C(=O)NCC(=O)N[C@@H](C)C(=O)N[C@H](C(=O)N[C@@H](CC(C)C)C(=O)N[C@@H](CCCCN)C(=O)N[C@H](C(=O)N[C@@H](CC(C)C)C(=O)N[C@H](C(=O)N[C@H](C(=O)NCC(=O)N[C@@H](CC(C)C)C(=O)N1CCC[C@H]1C(=O)N[C@@H](C)C(=O)N[C@@H](CC(C)C)C(=O)N[C@H](C(=O)N[C@@H](CO)C(=O)N[C@@H](Cc1c[nH]c2ccccc12)C(=O)N[C@H](C(=O)N[C@@H](CCCCN)C(=O)N[C@@H](CCCNC(=N)N)C(=O)N[C@@H](CCCCN)C(=O)N[C@@H](CCCNC(=N)N)C(=O)N[C@@H](CCC(N)=O)C(=O)N[C@@H](CCC(N)=O)C(N)=O)[C@@H](C)CC)[C@@H](C)CC)[C@@H](C)O)[C@@H](C)O)C(C)C)C(C)C,Active,–,–,–,–,–,–,–,–,–,–,–,–,–,–,–,–
C=CCc1cc(-c2ccc(OCCC[N+](C)(C)CC(=O)NCCCC)c(CC=C)c2)c2oc(-c3ccc(Cl)cc3Cl)nc2c1.[Br-],–,32,32,64,16,16,8,8,8,8,8,16,8,> 128,85.9,2.7,–
C=CCc1cc(-c2ccc(OCCC[N+](C)(C)CC(=O)NCCCC)c(CC=C)c2)c2oc(-c3ccccc3Br)nc2c1.[Br-],–,4,8,4,4,2,4,2,4,4,4,4,4,128,> 320,> 80,–
CCn1cc(C(=O)O)c(=O)c2cc(F)c(N3CCNCC3)cc21 [NORFLOXACIN],–,–,–,–,–,–,–,–,–,–,–,–,–,–,–,–,128
C=CCc1cc(-c2ccc(OCCC[N+](C)(C)CC(=O)NCCCC)c(CC=C)c2)c2oc(-c3ccc(Cl)c(Br)c3)nc2c1.[Br-],–,128,128,> 128,128,32,64,64,128,128,128,128,128,> 128,> 320,> 2.5,–
C=CCc1ccc(O)c(-c2ccc(O)c(CC=C)c2)c1 [HONOKIOL],–,64,8,16,8,16,16,16,16,8,16,16,16,> 128,> 80,> 1.25,–
C=CCc1cc(-c2ccc(OCCC[N+](C)(C)CC(=O)NCCCC)c(CC=C)c2)c2oc(-c3ccc(F)c(F)c3)nc2c1.[Br-],–,8,32,8,8,4,4,4,4,4,4,16,4,> 128,222,27.7,–
C=CCc1cc(-c2ccc(OCCC[N+](C)(C)CC(=O)NCCCC)c(CC=C)c2)c2oc(-c3ccc(Cl)c(Cl)c3)nc2c1.[Br-],–,128,128,64,32,16,32,32,128,32,32,64,64,> 128,87.6,0.7,–
C=CCc1cc(-c2ccc(OCCC[N+](C)(C)CC(=O)NCCCC)c(CC=C)c2)c2oc(-c3cc(Br)cc(Br)c3)nc2c1.[Br-],–,128,128,128,> 128,> 128,128,128,128,> 128,64,128,128,128,205,1.6,–
C=CCc1cc(-c2ccc(OCCC[N+](C)(C)CC(=O)NCCCC)c(CC=C)c2)c2oc(-c3cccc(OC)c3)nc2c1.[Br-],–,32,8,8,16,16,8,8,8,8,8,16,8,> 128,307,9.6,–
C=CCc1cc(-c2ccc(OCCC[N+](C)(C)CC(=O)NCCCC)c(CC=C)c2)c2oc(-c3ccc(F)cc3Cl)nc2c1.[Br-],–,8,8,4,4,4,4,4,4,4,4,4,4,> 128,219,27.3,–
C=CCc1cc(-c2ccc(OCCC[N+](C)(C)CC(=O)NCCCC)c(CC=C)c2)c2oc(-c3ccccc3Cl)nc2c1.[Br-],–,16,64,128,64,32,64,32,128,64,128,32,32,128,> 640,> 40,–
C=CCc1cc(-c2ccc(OCCC[N+](C)(C)CC(=O)NCCCC)c(CC=C)c2)c2oc(-c3ccc(F)cc3)nc2c1.[Br-],–,32,16,16,16,8,8,8,8,8,8,8,8,> 128,> 320,> 10,–
C=CCc1cc(-c2ccc(OCCC[N+](C)(C)CC(=O)NCCCC)c(CC=C)c2)c2oc(-c3ccc(Br)cc3)nc2c1.[Br-],–,64,64,8,16,8,8,8,16,8,8,16,8,128,> 320,> 5,–
C=CCc1cc(-c2ccc(OCCC[N+](C)(C)CC(=O)NCCCC)c(CC=C)c2)c2oc(-c3ccc(F)c(Br)c3)nc2c1.[Br-],–,128,128,8,16,8,8,16,16,8,8,32,16,128,48.5,0.4,–
C=CCc1cc(-c2ccc(OCCC[N+](C)(C)CC(=O)NCCCC)c(CC=C)c2)c2oc(-c3ccc(Br)cc3Br)nc2c1.[Br-],–,128,64,32,16,16,32,16,64,16,16,32,32,> 128,170,1.3,–
